Values of other authors as cited in publication PMC8739840, “Structural and Molecular Insight into Piperazine and Piperidine Derivatives as Histamine H3 and Sigma-1 Receptor Antagonists with Promising Antinociceptive Properties” (ACS Chemical Neuroscience, 2021).

Experiments:
[1] = quoted for comparison of basicity; no reference given; cited from earlier work
σ2 receptor = details: cited from earlier work
σ1 receptor = details: read-out: EC50, functional agonism of σ1 receptor-mediated calcium flux; cited from earlier work
σ2R = details: read-out: σ2R IC50 (binding); cited from earlier work

SMILES | pKa [1] | agonist activity in σ2 receptor-mediated calcium flux functional assay (σ2 receptor) | IC50 (σ2 receptor; read-out: IC50, decrease of haloperidol-induced calcium release (antagonist)) [nM] | EC50 (σ1 receptor) [nM] | IC50 (σ2R) [nM]
CN(C)c1ccncc1 [DMAP] | 9.2 | – | – | – | –
Clc1ccc(CCCOCCCN2CCCCC2)cc1 [PIT, Pitolisant] | – | did not elicit agonist activity | 10000 | 402 | 8.55
